Assay results as given in patent US7811551B2, “Imaging agents” (GE Healthcare AS, priority 2003, dated 2010).
Starred links: 1 amine or outer side, 2 acyl side, 3 side chain; linkers in the order of their positions; H or OH if unused. Positions of bridges follow the written chain, without caps; N, C: chain ends. Residues, ends and D or L forms follow the SMILES beside them. *: point of attachment. X1 = O=C(COCC(=O)*)NCCOCCOCCOCCOCCOCCNC(=O)CSCCCF; CH2 = C([*:1])[*:2]

Biological target: T1, ανβ3 integrin receptor (Homo sapiens, UniProt P05106+P06756)
T1 construct: Using cell membrane preparations known to express the ανβ3 integrin receptor; endogenous in cells
Assay: competitive binding with 125I-echistatin on cell membrane preparations
Settings: cell membrane preparations expressing ανβ3 integrin receptor; 125I-echistatin as radioligand; Ki calculated using Prism software
Procedure: Using cell membrane preparations known to express the ανβ3 integrin receptor, competitive binding studies were carried out using ^125I-echistatin and the F-labelled peptides as competing ligand. Binding curves were obtained and Ki's calculated using Prism™ software.

Ki: 7 nM
SMILES: N=C(N)NCCC[C@@H]1NC(=O)[C@@H]2CSCSC[C@H](NC(=O)[C@H](CC(=O)O)NC(=O)CNC1=O)C(=O)N[C@@H](Cc1ccccc1)C(=O)N[C@H](C(N)=O)CSCC(=O)N[C@@H](CCCCNC(=O)COCC(=O)NCCOCCOCCOCCOCCOCCNC(=O)CSCCCF)C(=O)N2 [Example 1] ({CH2CO}-K(X1)CRGDCFC-NH2; linker 2-6 via CH2; thioether N-8)
